This is an account of results in PMC5562305, “Impact of novel palmitoylated prolactin-releasing peptide analogs on metabolic changes in mice with diet-induced obesity” (PLoS ONE, 2017).

One assay addresses T1, human NPFF2 (Homo sapiens, UniProt Q9Y5X5).
T1 construct: purchased Perkin Elmer; host or cells: CHO-K1 cell membranes
The experiment in a line: Competitive binding of 125I-1DMe to human NPFF2 receptor membranes. The following applies: for % binding human PrRP31 (NPFF2): Ki relative to human PrRP31 = 100. As for the experimental part: CHO-K1 cells expressing the GPR10 receptor (Thermo Fisher Scientific Inc., Waltham, MA, USA) were grown according to the manufacturer's instructions. Saturation and competitive binding experiments were performed according to the methods of Motulsky and Neubig. […] The experiments were performed on plated cells that were incubated for 60 min at 25°C. Non-specific binding was determined using 10^−5 M PrRP31. The binding assays involving human NPFF2 receptor membranes obtained from Perkin Elmer were performed as described in [18].
Data are presented as the means ± SEM. The competitive binding curves were plotted using GraphPad software (San Diego, CA, USA), and the best fits were compared for single-binding-site models (IC50 values were obtained from nonlinear regression analysis). Inhibition constants (Ki) were calculated from the IC50 values using the Cheng-Prusoff equation [23]. The concentration of the radioligand was 0.1 nM for cell membranes of CHO-K1 cells overexpressing NPFF2 and 0.03 nM for CHO-K1 cells overexpressing GPR10.

Assay [1] is described as follows: Adipose tissue and liver weights in DIO mice at the end of the experiment. The following applies: 5 mg/kg SC twice a day, 2 weeks, n = 10, mean ± SEM. Format: in vivo, C57BL/6 mice. From the text: (§1) From 8 weeks of age, the mice were fed in house made high-fat (HF) diet to induce obesity. […] After twelve weeks of HF-diet feeding, two weeks of SC administration of lipidized PrRP analogs was initiated while the mice were kept on the HF diet. The following experimental groups were established: […] Food intake and BW were monitored daily during the dosing period. At the end of the experiment, the mice were sacrificed by decapitation. The trunk blood was collected, and the blood plasma was separated and stored at -20°C. The visceral adipose tissues (VAT) (from abdominal part), subcutaneous adipose tissues (SCAT) (all adipose tissue depots under the skin), perirenal adipose tissues, interscapular brown adipose tissues (BAT), and livers of all of the mice were dissected, weighed, flash-frozen in liquid nitrogen, and stored at -70°C for later extraction of RNA.

Assay [2] can be described thus: Hormonal and biochemical (metabolic) parameters in blood of DIO mice. Format: in vivo, C57BL/6 mice. The conditions noted are these: mean ± SEM; for Glucose: blood; for Glucose / FFA / Insulin / Leptin / T Chol (total cholesterol) / Triglycerides: 5 mg/kg SC twice a day, 2 weeks; for HOMA index: fasting glucose x fasting insulin / 22.5, 2 weeks; for FFA / Insulin / Leptin / T Chol (total cholesterol) / Triglycerides: plasma.
From the text: as §1, with “RNA. The plasma insulin concentrations were measured using an RIA assay (Millipore, St. Charles, MI, USA), and the leptin concentrations were determined by ELISA (Millipore, St. Charles, MI, USA). The blood glucose levels were measured using a Glucocard glucometer (Arkray, Kyoto, Japan). The plasma triglyceride levels were measured using a quantitative enzymatic reaction (Sigma, St. Louis, MO, USA), and the free fatty acids (FFA) levels were determined using a colorimetric assay (Roche, Mannheim, Germany). Cholesterol was determined by colorimetric assay (Erba Lachema, Brno, Czech Republic). All measurements were performed according to the manufacturer's instructions.” for “RNA.”

In the next assay the target is T2, GPR10 (Homo sapiens, UniProt P49683).
T2 sequence (P49683 1-370): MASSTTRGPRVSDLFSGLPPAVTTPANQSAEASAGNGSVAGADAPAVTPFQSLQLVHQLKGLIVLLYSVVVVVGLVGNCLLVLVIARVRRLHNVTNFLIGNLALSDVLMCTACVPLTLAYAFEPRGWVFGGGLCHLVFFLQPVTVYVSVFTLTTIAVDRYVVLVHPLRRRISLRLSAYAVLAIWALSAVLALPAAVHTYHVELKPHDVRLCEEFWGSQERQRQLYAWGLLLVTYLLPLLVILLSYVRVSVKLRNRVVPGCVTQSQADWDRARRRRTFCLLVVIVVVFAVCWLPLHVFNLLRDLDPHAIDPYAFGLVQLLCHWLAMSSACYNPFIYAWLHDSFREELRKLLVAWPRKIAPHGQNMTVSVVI
The experiment in a line: Beta-lactamase-dependent FRET assay (bla reporter gene) in CHO-K1 cells overexpressing GPR10. Set-up: expressed in transfected cells; host or cells: CHO-K1. The class given is cell-based. As for the experimental part: CHO-K1 cells overexpressing GPR10 were plated at 40,000 cells/well in 128 μl of assay medium (DMEM containing 10% dialyzed FBS, 0.1 mM NEAA, 25 mM HEPES, 1% penicillin/streptomycin, and 2 mM L-glutamine) in a 96-well plate and were incubated for 20 h at 37°C/5% CO2. The assay was performed according to the manufacturer's protocol.
The results from the lactamase assay were analyzed using nonlinear regression by log agonist vs. response using GraphPad software.

[3] abbreviates: average of the single experiments, read-out: Activation of bla reporter gene in GPR10 overexpressing cells, EC50, AVERAGE.
The mark [4] stands for this setting: average of the single experiments.

Where two headings read alike, the source gives them in different places. Starred links: 1 amine or outer side, 2 acyl side, 3 side chain; linkers in the order of their positions; H or OH if unused. Residues, ends and D or L forms follow the SMILES beside them. Groups on a side chain read outwards from the residue. *: point of attachment. TTDA(Palmitoyl) = CCCCCCCCCCCCCCCC(=O)NCCCOCCOCCOCCCN*; γGlu = O=C(O)[C@H](CCC(=O)[*:2])N[*:1]; Palmitoyl = CCCCCCCCCCCCCCCC(=O)*; Suc = O=C(CCC(=O)[*:2])[*:1]

One may read the Ki as the equilibrium dissociation constant of an inhibitor or competing ligand from its target. What is called EC50 is the concentration at which the effect is half-maximal.

T1 sequence (Q9Y5X5 whole entry): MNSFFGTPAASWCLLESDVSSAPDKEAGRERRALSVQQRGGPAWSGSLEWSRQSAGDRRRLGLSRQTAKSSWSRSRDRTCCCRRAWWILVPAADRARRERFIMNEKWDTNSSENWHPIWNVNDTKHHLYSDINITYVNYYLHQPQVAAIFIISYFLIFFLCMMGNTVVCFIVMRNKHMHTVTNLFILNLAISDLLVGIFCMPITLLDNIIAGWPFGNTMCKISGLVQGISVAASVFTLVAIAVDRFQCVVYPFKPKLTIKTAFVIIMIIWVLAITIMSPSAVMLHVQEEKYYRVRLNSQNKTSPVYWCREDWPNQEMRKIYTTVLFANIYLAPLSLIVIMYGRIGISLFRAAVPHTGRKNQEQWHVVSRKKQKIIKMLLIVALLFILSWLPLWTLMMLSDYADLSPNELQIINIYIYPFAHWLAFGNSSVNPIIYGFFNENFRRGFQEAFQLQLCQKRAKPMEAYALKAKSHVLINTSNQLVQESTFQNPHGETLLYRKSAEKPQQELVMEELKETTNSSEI

Regarding `CCCCCCCCCCCCCCCC(=O)N[C@@H](CCC(=O)NCCCC[C@H](NC(=O)[C@@H](NC(=O)[C@H](CCC(=O)O)NC(=O)[C@H](CCSC)NC(=O)[C@H](CO)NC(=O)[C@H](Cc1c[nH]cn1)NC(=O)[C@H](CCCNC(=N)N)NC(=O)[C@H](Cc1c[nH]cn1)NC(=O)[C@@H](NC(=O)[C@H](CCCNC(=N)N)NC(=O)[C@@H](N)CO)[C@@H](C)O)[C@@H](C)CC)C(=O)N[C@H](C(=O)N1CCC[C@H]1C(=O)N[C@@H](CC(=O)O)C(=O)N[C@H](C(=O)N[C@@H](CC(N)=O)C(=O)N1CCC[C@H]1C(=O)N[C@@H](C)C(=O)N[C@@H](Cc1c[nH]c2ccccc12)C(=O)N[C@@H](Cc1ccc(O)cc1)C(=O)N[C@@H](C)C(=O)N[C@@H](CO)C(=O)N[C@@H](CCCNC(=N)N)C(=O)NCC(=O)N[C@H](C(=O)N[C@@H](CCCNC(=N)N)C(=O)N1CCC[C@H]1C(=O)N[C@H](C(=O)NCC(=O)N[C@@H](CCCNC(=N)N)C(=O)N[C@@H](Cc1ccccc1)C(N)=O)C(C)C)[C@@H](C)CC)[C@@H](C)CC)[C@@H](C)O)C(=O)O` [analog 1] (H-SRTHRHSMEIK([γGlu-Palmitoyl])TPDINPAWYASRGIRPVGRF-NH2; N-terminus assumed), on human NPFF2, the “% binding human PrRP31 (NPFF2)” value amounted to 128%. This compound displayed a Ki on human NPFF2 (membranes of CHO-K1 cells overexpressing NPFF2, 0.1 nM radioligand, Cheng-Prusoff, mean ± SEM, SEM) of 39.1 ± 23.1 nM. Further, in assay [1], the Liver weight is recorded as 1.27 ± 0.05 g, the “Perirenal AT” value is on record as 2.72 ± 0.11 % of BW and the “Total AT” value is 14.59 ± 0.32 % of BW. In assay [2], this compound came in with a Glucose of 7.12 ± 0.36 mmol/L, an HOMA index of 85.70 ± 0.39, an FFA of 0.54 ± 0.03 mmol/L and an Insulin of 1.57 ± 0.14 ng/mL. In addition, in assay [2], the Leptin was 22.67 ± 2.72 ng/mL, the “T Chol (total cholesterol)” value was 4.26 ± 0.22 mmol/L and the Triglycerides is 0.44 ± 0.03 mg/mL. For the same compound, the EC50 on GPR10 (setting [3]) turned out to be 0.0463 nM.

On to `CCCCCCCCCCCCCCCC(=O)NCCCOCCOCCOCCCNC(=O)CCC(=O)NCCCC[C@H](NC(=O)[C@@H](NC(=O)[C@H](CCC(=O)O)NC(=O)[C@H](CCSC)NC(=O)[C@H](CO)NC(=O)[C@H](Cc1c[nH]cn1)NC(=O)[C@H](CCCNC(=N)N)NC(=O)[C@H](Cc1c[nH]cn1)NC(=O)[C@@H](NC(=O)[C@H](CCCNC(=N)N)NC(=O)[C@@H](N)CO)[C@@H](C)O)[C@@H](C)CC)C(=O)N[C@H](C(=O)N1CCC[C@H]1C(=O)N[C@@H](CC(=O)O)C(=O)N[C@H](C(=O)N[C@@H](CC(N)=O)C(=O)N1CCC[C@H]1C(=O)N[C@@H](C)C(=O)N[C@@H](Cc1c[nH]c2ccccc12)C(=O)N[C@@H](Cc1ccc(O)cc1)C(=O)N[C@@H](C)C(=O)N[C@@H](CO)C(=O)N[C@@H](CCCNC(=N)N)C(=O)NCC(=O)N[C@H](C(=O)N[C@@H](CCCNC(=N)N)C(=O)N1CCC[C@H]1C(=O)N[C@H](C(=O)NCC(=O)N[C@@H](CCCNC(=N)N)C(=O)N[C@@H](Cc1ccccc1)C(N)=O)C(C)C)[C@@H](C)CC)[C@@H](C)CC)[C@@H](C)O` [analog 2] (H-SRTHRHSMEIK([Suc-TTDA(Palmitoyl)])TPDINPAWYASRGIRPVGRF-NH2; N-terminus assumed), for which the “% binding human PrRP31 (NPFF2)” value at human NPFF2 is 761%. Moreover, the Ki at human NPFF2 (setting [4]) was 6.57 nM. In assay [1], the Liver weight is recorded as 1.31 ± 0.06 g, the “Perirenal AT” value was 2.73 ± 0.17 % of BW and the “Total AT” value is 15.70 ± 0.53 % of BW. In assay [2], this compound showed a Glucose of 7.26 ± 0.31 mmol/L, an HOMA index of 86.27 ± 0.64, an FFA of 0.52 ± 0.02 mmol/L and an Insulin of 1.55 ± 0.27 ng/mL. In assay [2], the Leptin is 23.64 ± 3.54 ng/mL, the “T Chol (total cholesterol)” value amounted to 3.96 ± 0.26 mmol/L and the Triglycerides is 0.44 ± 0.04 mg/mL. Moreover, the EC50 on GPR10 (setting [3]) turned out to be 0.0835 nM.

As to `CCCCCCCCCCCCCCCC(=O)NCCCOCCOCCOCCCNC(=O)CCC(=O)NCCCC[C@H](NC(=O)[C@@H](NC(=O)[C@H](CCC(=O)O)NC(=O)[C@H](CCSC)NC(=O)[C@H](CO)NC(=O)[C@H](Cc1c[nH]cn1)NC(=O)[C@H](CCCNC(=N)N)NC(=O)[C@H](Cc1c[nH]cn1)NC(=O)[C@@H](NC(=O)[C@H](CCCNC(=N)N)NC(=O)[C@H](CO)NC(=O)CCC(=O)NCCCOCCOCCOCCCNC(=O)CCCCCCCCCCCCCCC)[C@@H](C)O)[C@@H](C)CC)C(=O)N[C@H](C(=O)N1CCC[C@H]1C(=O)N[C@@H](CC(=O)O)C(=O)N[C@H](C(=O)N[C@@H](CC(N)=O)C(=O)N1CCC[C@H]1C(=O)N[C@@H](C)C(=O)N[C@@H](Cc1c[nH]c2ccccc12)C(=O)N[C@@H](Cc1ccc(O)cc1)C(=O)N[C@@H](C)C(=O)N[C@@H](CO)C(=O)N[C@@H](CCCNC(=N)N)C(=O)NCC(=O)N[C@H](C(=O)N[C@@H](CCCNC(=N)N)C(=O)N1CCC[C@H]1C(=O)N[C@H](C(=O)NCC(=O)N[C@@H](CCCNC(=N)N)C(=O)N[C@@H](Cc1ccccc1)C(N)=O)C(C)C)[C@@H](C)CC)[C@@H](C)CC)[C@@H](C)O` [analog 3] ({TTDA(Palmitoyl)-Suc}-SRTHRHSMEIK([Suc-TTDA(Palmitoyl)])TPDINPAWYASRGIRPVGRF-NH2), the “% binding human PrRP31 (NPFF2)” value on human NPFF2 is 580%. The compound further registered a Ki at human NPFF2 (setting [4]) of 8.63 nM. Also, in assay [1], the Liver weight amounted to 1.58 ± 0.09 g, the “Perirenal AT” value is on record as 3.09 ± 0.16 % of BW and the “Total AT” value is 16.13 ± 0.38 % of BW. In addition, in assay [2], the Glucose is 7.91 ± 0.46 mmol/L, the HOMA index worked out at 163.13 ± 1.06, the FFA came to 0.62 ± 0.03 mmol/L and the Insulin came out at 2.69 ± 0.30 ng/mL. In addition, in assay [2], the Leptin was determined as 40.30 ± 5.57 ng/mL, the “T Chol (total cholesterol)” value amounted to 4.86 ± 0.17 mmol/L and the Triglycerides was 0.63 ± 0.05 mg/mL. Further, at GPR10 (CHO-K1 cells, mean ± SEM of at least three experiments, SEM, read-out: Activation of bla reporter gene in GPR10 overexpressing cells, EC50), the EC50 was found to be 0.284 ± 0.054 nM.
